# Earlier results in patent US20010046957A1, “Method for treating hepatitis C” (priority 1999, published 2001).
# Legend:
# HCV [1] = test system: HCV
# [2] = in vivo
# yellow fever virus = settings: (Neyts J)
# HCV [3] = settings: patients with CHC virus infection following liver transplant, after initiation of MMF therapy for rejection; anecdotal report (Platz KP)
# [4] = patients treated at currently recommended doses
molecule,measurement,setting,value
IFN-α,sustained response,"HCV [1]; IFN-α monotherapy, general CHC populations (Fried M)",5-20%
Mycophenolic acid [MPA],bioavailability,[2],limited
"COc1c(C)c2c(c(O)c1C/C=C(\C)CCC(=O)OCCN1CCOCC1)C(=O)OC2 [MMF, mycophenolate mofetil]",antiviral activity,yellow fever virus,antiviral activity
same,serum HCV RNA levels,HCV [3],decrease in some patients
"NC(=O)c1ncn([C@@H]2O[C@H](CO)[C@@H](O)[C@H]2O)n1 [Ribavirin, 1-β-D-ribofuranosyl-1 H-1 ,2,-4-triazole-3-carboxamide]","significant hemolysis, patients affected",[4],10-20%
same,improvement of sustained virological response rates over IFN-α monotherapy,"HCV [1]; ribavirin combined with IFNα, CHC (Lai MY; Reichard O)",approximately 2 fold
same,end of treatment virological response,"HCV [1]; ribavirin combined with a pegylated form of IFN-α2A, small pilot study of safety (Sulkowski M.)",70%
same,sustained loss of detectable virus,"HCV [1]; ribavirin plus IFNα regimen, treated patients (McHutchison JG)",30 - 40%
